The record followed here is patent publication US10232060B2, “CEST systems exhibiting a concentration independent responsiveness” (BRACCO IMAGING S.P.A., priority 2010, dated 2019).

Common to all, as to type: physicochemical
Data set [1] in a line: Z-spectrum / NMR resonances of the exchangeable OH protons of NMR-distinguishable isomers in solution. The source says:
(§1) CEST MR contrast enhancement have been determined on images acquired at 7 T on a Bruker Avance 300 spectrometer equipped with a Micro2.5 microimaging probe. A typical RARE spin-echo sequence (rare factor 64) with an echo time of 3.3 ms and a TR value of 5 s were used. An acquisition matrix of 64×64 with a square FOV of 10 mm was used. The whole sequence was preceded by a saturation scheme consisting of a continuous wave pulse 2 s long with a RF intensity of 24, 12, 6 μT. The Z-spectra were successively analyzed in order to determine the ratiometric value by using a software compiled in MATLAB platform operating, broadly, as disclosed in Development and validation of a smoothing-splines-based correction method for improving the analysis of CEST-MR images, Stancanello J Terreno E, Delli Castelli D, Cabella C, Uggeri F 1, Aime S.; CONTRAST MEDIA & MOLECULAR IMAGING Volume: 3, Issue: 4, Pages: 136-149, 2008; and in Methods for an improved detection of the MRI-CEST effect. Terreno E, Stancanello 3, Longo D, Delli Castelli D, Milone L, Sanders H M H F, Kok M B, Uggeri F, Aime S; CONTRAST MEDIA & MOLECULAR IMAGING; Volume: 4; Issue: 5; Pages: 237-247; 2009 that are all herein included by reference. The total paramagnetic concentration of the solution was determined through the measurement of magnetic susceptibility of the solution on a Bruker Avance 600 spectrometer (12T).

Data set [2] can be described thus: In vitro responsive properties towards temperature (Z-spectra). To be noted: for resonance frequency of hydroxylic protons, less shifted stereoisomer / resonance frequency of hydroxylic protons, more shifted stereoisomer: 24 mM, pH 7.31. Here is the method: A solution of Yb(III)HPDO3A (24 mM) having pH 7.31 was used for test.
The test was performed with a phantom containing solution of YbHPDO3A-tetramer in serum having different concentration, ranging from 0.26 to 8.4 mM., pH 7.4 and 298K. The dependence of the chemical shifts of the OH mobile protons (of the tetrameric complex stereoisomers) on the Temperature was tested by operating as formerly described for the monomeric compound.

Data set [3] can be described thus: In vitro responsiveness towards pH (CEST MRI of phantom, ratiometric ST). The conditions noted are these: in vitro solutions buffered at different pH.
Text: as §1, with “[…]. […]” for “(12T).”

Regarding `CC(O)CN1CCN(CC(=O)[O-])CCN(CC(=O)[O-])CCN(CC(=O)[O-])CC1.[Eu+3]` (centres unmarked) [EuHPDO3A], in data set [1] (pH=2 and 37° C.), the “chemical shift of OH proton, first diastereoisomer (from water)” value turned out to be 20.5 ppm and the “chemical shift of OH proton, second diastereoisomer” value is 16.7 ppm.
With “1,23-bis[4,7,10-triacetate[1,4,7,10-tetraazacyclododecan-(1)-yl]]-12,12′-bis[11[4,7,10-triacetate)-[1,4,7,10-tetraazacyclododecan-(1)-yl]]2-aza-3-oxo-5,8-dioxy-10-hydroxyundecanyl]2,22-dihydroxy-4,7,17,20-tetroxy-9,15-dioxo-10,14-diazatricosane tetra Ytterbium Complex (1:4) [YbHPDO3A-tetramer]”, the “sensitivity of the OH chemical shift to temperature (in words)” value in data set [2] is on record as “greatly increased”.
In the case of `CC(O)CN1CCN(CC(=O)[O-])CCN(CC(=O)[O-])CCN(CC(=O)[O-])CC1.[Yb+3]` (centres unmarked) [YbHPDO3A], in data set [2], the “sensitivity of the OH chemical shift to temperature (in words)” value is on record as “very sensitive to the temperature”. In data set [2] (20° C.), the “resonance frequency of hydroxylic protons, less shifted stereoisomer” value was found to be 72 ppm and the “resonance frequency of hydroxylic protons, more shifted stereoisomer” value is recorded as 99 ppm. In addition, in data set [2] (37° C.), the “resonance frequency of hydroxylic protons, less shifted stereoisomer” value worked out at 64.3 ppm and the “resonance frequency of hydroxylic protons, more shifted stereoisomer” value came out at 88 ppm. Besides, in data set [3], the “responsiveness of the saturation transfer towards pH (in words)” value is on record as “is different”. In data set [1] (20° C.), the “chemical shift of hydroxyl group, less shifted NMR-distinguishable diastereoisomer” value was found to be 72 ppm and the “chemical shift of hydroxyl group, more shifted NMR-distinguishable diastereoisomer” value is reported as 99 ppm.
